Laboratory results reported in patent publication US7531646B2, “β-D-ribosidase activity indicators with a chromogenic substrate” (priority 2001, dated 2009).
Counter-ions that a name gives are not always drawn.

How the values were obtained:
Experiment in all cases: Substrate hydrolysis on Columbia agar
Type in all cases: cell-based
E. coli = conditions: 300 mg/l, 18 hours
K. pneumoniae = system: K. pneumoniae; parameters: key to the marks not given beside the values; conditions: 300 mg/l, 18 hours
K. oxytoca = conditions: 300 mg/l, 18 hours
Aeromonas caviae = system: Aeromonas caviae; parameters: key to the marks not given beside the values; conditions: Aeromonas caviae NCTC 10852; 300 mg/l; 18 hours
E. cloacae = system: E. cloacae; parameters: key to the marks not given beside the values; conditions: 300 mg/l, 18 hours
Salmonella typhimurium = Salmonella typhimurium NCTC 74; 300 mg/l; 18 hours
Salmonella oranienburg = Salmonella oranienburg SAX 56; 300 mg/l; 18 hours
Salmonella panama = Salmonella panama SAX 58; 300 mg/l; 18 hours
A. lwoffii = A. lwoffii ATCC 15309; 300 mg/l; 18 hours
A. calcoaceticus = A. calcoaceticus ATCC 7844; 300 mg/l; 18 hours
[1] = system: Providencia alcalifaciens; conditions: 300 mg/l, 18 hours
P. vulgaris = conditions: 300 mg/l, 18 hours
Vibrio cholerae = conditions: 300 mg/l, 18 hours
Vibrio cincinnatiensis = Vibrio cincinnatiensis NCTC 12012; 300 mg/l; 18 hours
Vibrio vulnificus = conditions: 300 mg/l, 18 hours
Vibrio fluvialis = system: Vibrio fluvialis; parameters: key to the marks not given beside the values; conditions: Vibrio fluvialis NCTC 11327; 300 mg/l; 18 hours
Vibrio alcaligenes = Vibrio alcaligenes NCTC 12160; 300 mg/l; 18 hours
Streptococcus sanguis = Streptococcus sanguis NCTC 7863; 300 mg/l; 18 hours
[2] = system: Haemolytic streptococcus C; conditions: 300 mg/l, 18 hours
Listeria seerigeri = Listeria seerigeri PHLS wild; 300 mg/l; 18 hours
Listeria innocua = Listeria innocua PHLS wild; 300 mg/l; 18 hours
[3] = system: Staphylococcus haemolyticus; conditions: 300 mg/l, 18 hours
[4] = system: Staphylococcus saprophyticus; conditions: 300 mg/l, 18 hours
Enterococcus gellinarum = Enterococcus gellinarum NCTC 11428; 300 mg/l; 18 hours

O=c1cc(-c2ccc(OC3OC(CO)C(O)C3O)c(O)c2)oc2ccccc12 [DHF-riboside, 3′,4′-dihydroxyflavone-4′-β-D-ribofuranoside Sodium Salt]
Hydrolysis by Gram negative bacteria (E. coli; E. coli ECO 2): ++
Hydrolysis by Gram negative bacteria (E. coli; E. coli ECO 3): ++
Hydrolysis by Gram negative bacteria (E. coli; E. coli ECO 4): ++
Hydrolysis by Gram negative bacteria (E. coli; E. coli ECO 5): ++
Hydrolysis by Gram negative bacteria (E. coli; E. coli ECO 6): ++
Hydrolysis by Gram negative bacteria (E. coli; E. coli ECO 7): ++
Hydrolysis by Gram negative bacteria (E. coli; E. coli ECO 8): ++
Hydrolysis by Gram negative bacteria (E. coli; E. coli ECO 9): ++
Hydrolysis by Gram negative bacteria (E. coli; E. coli ECO 10): ++
Hydrolysis by Gram negative bacteria (E. coli; E. coli ECO 11): ++
Hydrolysis by Gram negative bacteria (E. coli; E. coli ECO 12): ++
Hydrolysis by Gram negative bacteria (E. coli; E. coli NCTC 10418): ++
Hydrolysis by Gram negative bacteria (K. pneumoniae; K. pneumoniae KPN 2): ++
Hydrolysis by Gram negative bacteria (K. pneumoniae; K. pneumoniae KPN 3): ++
Hydrolysis by Gram negative bacteria (K. pneumoniae; K. pneumoniae KPN 4): ++
Hydrolysis by Gram negative bacteria (K. pneumoniae; K. pneumoniae NCTC 10896): ++
Hydrolysis by Gram negative bacteria (K. oxytoca; K. oxytoca KOX 1): ++
Hydrolysis by Gram negative bacteria (K. oxytoca; K. oxytoca KOX 2): ++
Hydrolysis by Gram negative bacteria (Aeromonas caviae): ++
Hydrolysis by Gram negative bacteria (E. cloacae; E. cloacae ECL 1): ++
Hydrolysis by Gram negative bacteria (E. cloacae; E. cloacae ECL 2): ++
Hydrolysis by Gram negative bacteria (E. cloacae; E. cloacae ECL 3): ++
Hydrolysis by Gram negative bacteria (E. cloacae; E. cloacae ECL 4): ++
Hydrolysis by Gram negative bacteria (E. cloacae; E. cloacae NCTC 11936): ++
Hydrolysis by Gram negative bacteria (Salmonella typhimurium): ++
Hydrolysis by Gram negative bacteria (Salmonella oranienburg): ++
Hydrolysis by Gram negative bacteria (Salmonella panama): ++
Hydrolysis by Gram negative bacteria (A. lwoffii): −
Hydrolysis by Gram negative bacteria (A. calcoaceticus): −
Hydrolysis by Gram negative bacteria ([1]; Providencia alcalifaciens PAL 1): +
Hydrolysis by Gram negative bacteria ([1]; Providencia alcalifaciens PAL 2): −
Hydrolysis by Gram negative bacteria (P. vulgaris; P. vulgaris PVU 2): −
Hydrolysis by Gram negative bacteria (P. vulgaris; P. vulgaris PVU 4): −
Hydrolysis by Gram negative bacteria (P. vulgaris; P. vulgaris PVU 5): −
Hydrolysis by Gram negative bacteria (Vibrio cholerae; Vibrio cholera NCTC 6585): −
Hydrolysis by Gram negative bacteria (Vibrio cholerae; Vibrio cholera NCTC 7270): −
Hydrolysis by Gram negative bacteria (Vibrio cholerae; Vibrio cholera NCTC 8021): −
Hydrolysis by Gram negative bacteria (Vibrio cholerae; Vibrio cholera NCTC 10732): −
Hydrolysis by Gram negative bacteria (Vibrio cholerae; Vibrio cholera NCTC 12945): −
Hydrolysis by Gram negative bacteria (Vibrio cholerae; Vibrio cholerae NCTC 7254): −
Hydrolysis by Gram negative bacteria (Vibrio cholerae; Vibrio cholerae NCTC 8042): −
Hydrolysis by Gram negative bacteria (Vibrio cholerae; Vibrio cholerae NCTC 10255): −
Hydrolysis by Gram negative bacteria (Vibrio cholerae; Vibrio cholerae NCTC 10954): −
Hydrolysis by Gram negative bacteria (Vibrio cincinnatiensis): −
Hydrolysis by Gram negative bacteria (Vibrio vulnificus; Vibrio vulnificus NCTC 11066): −
Hydrolysis by Gram negative bacteria (Vibrio vulnificus; Vibrio vulnificus NCTC 11067): −
Hydrolysis by Gram negative bacteria (Vibrio fluvialis): ++
Hydrolysis by Gram negative bacteria (Vibrio alcaligenes): −
Hydrolysis by Gram positive organisms (Streptococcus sanguis): −
Hydrolysis by Gram positive organisms ([2]; Haemolytic streptococcus C 1): −
Hydrolysis by Gram positive organisms ([2]; Haemolytic streptococcus C 67736): −
Hydrolysis by Gram positive organisms ([2]; Haemolytic streptococcus C 68350): −
Hydrolysis by Gram positive organisms (Listeria seerigeri): −
Hydrolysis by Gram positive organisms (Listeria innocua): −
Hydrolysis by Gram positive organisms ([3]; Staphylococcus haemolyticus RB 66): +
Hydrolysis by Gram positive organisms ([3]; Staphylococcus haemolyticus RB 67): +
Hydrolysis by Gram positive organisms ([3]; Staphylococcus haemolyticus RB 68): +
Hydrolysis by Gram positive organisms ([3]; Staphylococcus haemolyticus RB 69): +
Hydrolysis by Gram positive organisms ([3]; Staphylococcus haemolyticus RB 70): +
Hydrolysis by Gram positive organisms ([4]; Staphylococcus saprophyticus 1): ++
Hydrolysis by Gram positive organisms ([4]; Staphylococcus saprophyticus 2): ++
Hydrolysis by Gram positive organisms ([4]; Staphylococcus saprophyticus 3): ++
Hydrolysis by Gram positive organisms ([4]; Staphylococcus saprophyticus 4): ++
Hydrolysis by Gram positive organisms ([4]; Staphylococcus saprophyticus 5): ++
Hydrolysis by Gram positive organisms (Enterococcus gellinarum): +
